#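 How tested: cells in 96-well plates exposed to compound for 48 hours at five concentrations. GI50 marks 50% less growth.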 Activity calls are given as the source filed them. Rule as the data show it: active = GI50 up to about 1.1 µM and inactive = higher.
# Tests used:
# Test in all cases: inhibition of tumour cell growth, NCI panel, 48 h
# IGROV-1 = tested on: IGROV-1
# MOLT-4 = tested on: MOLT-4
# UACC-257 = tested on: UACC-257
# SF-539 = tested on: SF-539
# CCRF-CEM = tested on: CCRF-CEM
# SW-620 = tested on: SW-620
# PC-3 = tested on: PC-3
# K562 = tested on: K562
# LOX IMVI = tested on: LOX IMVI
# ACHN = tested on: ACHN
# OVCAR-4 = tested on: OVCAR-4
# A549 = tested on: A549
# UO-31 = tested on: UO-31
# SK-MEL-5 = tested on: SK-MEL-5
# OVCAR-5 = tested on: OVCAR-5
# OVCAR-8 = tested on: OVCAR-8
# MDA-N = tested on: MDA-N
# HL-60 = tested on: HL-60
# MCF7 = tested on: MCF7
# Malme-3M = tested on: Malme-3M
# RXF 393 = tested on: RXF 393
# HCT-15 = tested on: HCT-15
# KM12 = tested on: KM12
# MDA-MB-435 = tested on: MDA-MB-435
# A498 = tested on: A498
# SNB-19 = tested on: SNB-19
# UACC-62 = tested on: UACC-62
# TK-10 = tested on: TK-10
# SF-295 = tested on: SF-295
# CAKI-1 = tested on: CAKI-1
# NCI-H226 = tested on: NCI-H226
# SF-268 = tested on: SF-268
# Hs-578T = tested on: Hs-578T
# 786-0 = tested on: 786-0
# NCI-H522 = tested on: NCI-H522
# U-251 = tested on: U-251
# T47D = tested on: T47D
# HOP-62 = tested on: HOP-62
# COLO 205 = tested on: COLO 205
# SK-MEL-28 = tested on: SK-MEL-28
# M14 = tested on: M14
# HCT-116 = tested on: HCT-116
# NCI-H460 = tested on: NCI-H460
# HT-29 = tested on: HT-29
# SK-MEL-2 = tested on: SK-MEL-2
# NCI/ADR-RES = tested on: NCI/ADR-RES
# SN12C = tested on: SN12C
# NCI-H23 = tested on: NCI-H23
# DU-145 = tested on: DU-145
# SK-OV-3 = tested on: SK-OV-3
# SR = tested on: SR
# BT-549 = tested on: BT-549
# RPMI-8226 = tested on: RPMI-8226
# EKVX = tested on: EKVX
# MDA-MB-231 = tested on: MDA-MB-231
# OVCAR-3 = tested on: OVCAR-3
# HOP-92 = tested on: HOP-92
# SNB-75 = tested on: SNB-75
# HCC 2998 = tested on: HCC 2998
smiles,measurement,setting,value
COc1cc2c3c(c1)c1cc(OC)c(OC)cc1c[n+]3CC2,GI50,IGROV-1,17.5 µM (inactive)
same,GI50,MOLT-4,2 µM (inactive)
same,GI50,UACC-257,18.1 µM (inactive)
same,GI50,SF-539,6.12 µM (inactive)
same,GI50,CCRF-CEM,> 50 µM (inactive)
same,GI50,SW-620,> 50 µM (inactive)
same,GI50,PC-3,25.8 µM (inactive)
same,GI50,K562,10 µM (inactive)
same,GI50,LOX IMVI,28.7 µM (inactive)
same,GI50,ACHN,> 50 µM (inactive)
same,GI50,OVCAR-4,15 µM (inactive)
same,GI50,A549,> 50 µM (inactive)
same,GI50,UO-31,> 100 µM (inactive)
same,GI50,SK-MEL-5,13.6 µM (inactive)
same,GI50,OVCAR-5,> 50 µM (inactive)
same,GI50,OVCAR-8,4.32 µM (inactive)
same,GI50,MDA-N,24.8 µM (inactive)
same,GI50,HL-60,> 50 µM (inactive)
same,GI50,MCF7,15.8 µM (inactive)
same,GI50,Malme-3M,0.991 µM (active)
same,GI50,RXF 393,27.9 µM (inactive)
same,GI50,HCT-15,> 50 µM
same,GI50,KM12,3.77 µM (inactive)
same,GI50,MDA-MB-435,25.8 µM (inactive)
same,GI50,A498,> 50 µM (inactive)
same,GI50,SNB-19,2.49 µM (inactive)
same,GI50,UACC-62,19.1 µM (inactive)
same,GI50,TK-10,> 50 µM (inactive)
same,GI50,SF-295,15.5 µM (inactive)
same,GI50,CAKI-1,30.6 µM (inactive)
same,GI50,NCI-H226,14.2 µM (inactive)
same,GI50,SF-268,0.0175 µM (active)
same,GI50,Hs-578T,3.1 µM (inactive)
same,GI50,786-0,1.61 µM (inactive)
same,GI50,NCI-H522,0.927 µM (active)
same,GI50,U-251,2.22 µM (inactive)
same,GI50,T47D,5.35 µM (inactive)
same,GI50,HOP-62,5.73 µM (inactive)
same,GI50,COLO 205,7.29 µM (inactive)
same,GI50,SK-MEL-28,22.8 µM (inactive)
same,GI50,M14,> 50 µM (inactive)
same,GI50,HCT-116,8.36 µM (inactive)
same,GI50,NCI-H460,4.32 µM (inactive)
same,GI50,HT-29,23 µM (inactive)
same,GI50,SK-MEL-2,31.8 µM (inactive)
same,GI50,NCI/ADR-RES,> 50 µM (inactive)
same,GI50,SN12C,1.53 µM (inactive)
same,GI50,NCI-H23,7.29 µM (inactive)
same,GI50,DU-145,31.8 µM (inactive)
same,GI50,SK-OV-3,> 50 µM (inactive)
same,GI50,SR,21.8 µM (inactive)
same,GI50,BT-549,2.63 µM (inactive)
same,GI50,RPMI-8226,18.7 µM (inactive)
same,GI50,EKVX,8.51 µM (inactive)
same,GI50,MDA-MB-231,> 50 µM (inactive)
same,GI50,OVCAR-3,12.5 µM (inactive)
CN(C)CCCNc1ccc([N+](=O)[O-])c2nc3ccccc3c(N)c12,GI50,IGROV-1,0.659 µM (active)
same,GI50,MOLT-4,0.278 µM (active)
same,GI50,UACC-257,1.63 µM (inactive)
same,GI50,SF-539,0.449 µM (active)
same,GI50,CCRF-CEM,0.243 µM (active)
same,GI50,SW-620,0.22 µM (active)
same,GI50,PC-3,0.394 µM (active)
same,GI50,K562,0.312 µM (active)
same,GI50,LOX IMVI,0.36 µM (active)
same,GI50,ACHN,0.205 µM (active)
same,GI50,HOP-92,0.516 µM (active)
same,GI50,OVCAR-4,0.169 µM (active)
same,GI50,A549,0.512 µM (active)
same,GI50,UO-31,0.942 µM (active)
same,GI50,SK-MEL-5,1.21 µM (inactive)
same,GI50,OVCAR-5,2.49 µM (inactive)
same,GI50,OVCAR-8,0.483 µM (active)
same,GI50,MDA-N,0.458 µM (active)
same,GI50,HL-60,0.459 µM (active)
same,GI50,MCF7,0.459 µM (active)
same,GI50,Malme-3M,0.51 µM (active)
same,GI50,RXF 393,0.736 µM (active)
same,GI50,HCT-15,0.423 µM
same,GI50,KM12,0.436 µM (active)
same,GI50,MDA-MB-435,0.718 µM (active)
same,GI50,A498,2.22 µM (inactive)
same,GI50,SNB-19,0.635 µM (active)
same,GI50,UACC-62,1.25 µM (inactive)
same,GI50,TK-10,2.27 µM (inactive)
same,GI50,SF-295,0.382 µM (active)
same,GI50,CAKI-1,2.67 µM (inactive)
same,GI50,NCI-H226,5.14 µM (inactive)
same,GI50,SF-268,0.839 µM (active)
same,GI50,Hs-578T,3.33 µM (inactive)
same,GI50,786-0,0.385 µM (active)
same,GI50,U-251,0.738 µM (active)
same,GI50,T47D,0.914 µM (active)
same,GI50,HOP-62,2.36 µM (inactive)
same,GI50,COLO 205,0.243 µM (active)
same,GI50,SK-MEL-28,2.44 µM (inactive)
same,GI50,M14,0.7 µM (active)
same,GI50,HCT-116,0.124 µM (active)
same,GI50,NCI-H460,0.352 µM (active)
same,GI50,HT-29,0.225 µM (active)
same,GI50,SK-MEL-2,1.38 µM (inactive)
same,GI50,NCI/ADR-RES,0.397 µM (active)
same,GI50,SN12C,0.771 µM (active)
same,GI50,NCI-H23,0.9 µM (active)
same,GI50,DU-145,0.308 µM (active)
same,GI50,SK-OV-3,0.228 µM (active)
same,GI50,SR,0.23 µM (active)
same,GI50,BT-549,1.48 µM (inactive)
same,GI50,RPMI-8226,0.266 µM (active)
same,GI50,EKVX,0.755 µM (active)
same,GI50,MDA-MB-231,0.598 µM (active)
same,GI50,OVCAR-3,0.63 µM (active)
CCOC(=O)/C=C(/C(=O)OCC)n1ccc(=O)n(Cc2cn(CCCCOC(C)=O)nn2)c1=O,GI50,IGROV-1,> 100 µM (inactive)
same,GI50,MOLT-4,50.2 µM (inactive)
same,GI50,UACC-257,> 100 µM (inactive)
same,GI50,SF-539,> 100 µM (inactive)
same,GI50,CCRF-CEM,16.2 µM (inactive)
same,GI50,SW-620,32.7 µM (inactive)
same,GI50,PC-3,> 100 µM (inactive)
same,GI50,K562,55 µM (inactive)
same,GI50,LOX IMVI,> 100 µM (inactive)
same,GI50,ACHN,40.3 µM (inactive)
same,GI50,HOP-92,6.65 µM (inactive)
same,GI50,OVCAR-4,> 100 µM (inactive)
same,GI50,A549,> 100 µM (inactive)
same,GI50,UO-31,> 100 µM (inactive)
same,GI50,SK-MEL-5,> 100 µM (inactive)
same,GI50,OVCAR-5,> 100 µM (inactive)
same,GI50,OVCAR-8,> 100 µM (inactive)
same,GI50,MDA-N,> 100 µM (inactive)
same,GI50,MCF7,60.3 µM (inactive)
same,GI50,RXF 393,> 100 µM (inactive)
same,GI50,SNB-75,> 100 µM (inactive)
same,GI50,HCT-15,59.4 µM
same,GI50,KM12,> 100 µM (inactive)
same,GI50,MDA-MB-435,> 100 µM (inactive)
same,GI50,SNB-19,> 100 µM (inactive)
same,GI50,UACC-62,> 100 µM (inactive)
same,GI50,TK-10,58.2 µM (inactive)
same,GI50,SF-295,> 100 µM (inactive)
same,GI50,CAKI-1,23.3 µM (inactive)
same,GI50,NCI-H226,32.9 µM (inactive)
same,GI50,HCC 2998,> 100 µM (inactive)
same,GI50,SF-268,> 100 µM (inactive)
same,GI50,Hs-578T,> 100 µM (inactive)
same,GI50,786-0,> 100 µM (inactive)
same,GI50,NCI-H522,13.6 µM (inactive)
same,GI50,U-251,> 100 µM (inactive)
same,GI50,T47D,> 100 µM (inactive)
same,GI50,HOP-62,> 100 µM (inactive)
same,GI50,COLO 205,31.8 µM (inactive)
same,GI50,SK-MEL-28,> 100 µM (inactive)
same,GI50,HCT-116,> 100 µM (inactive)
same,GI50,NCI-H460,> 100 µM (inactive)
same,GI50,HT-29,> 100 µM (inactive)
same,GI50,SK-MEL-2,> 100 µM (inactive)
same,GI50,NCI/ADR-RES,> 100 µM (inactive)
same,GI50,SN12C,> 100 µM (inactive)
same,GI50,NCI-H23,> 100 µM (inactive)
same,GI50,DU-145,> 100 µM (inactive)
same,GI50,SK-OV-3,> 100 µM (inactive)
same,GI50,SR,> 100 µM (inactive)
same,GI50,BT-549,> 100 µM (inactive)
same,GI50,RPMI-8226,89.3 µM (inactive)
same,GI50,EKVX,> 100 µM (inactive)
same,GI50,MDA-MB-231,> 100 µM (inactive)
same,GI50,OVCAR-3,> 100 µM (inactive)

# From ChEMBL document CHEMBL1201862, “PubChem BioAssay data set” (2004)
